Experimental data taken from patent EP4736876A1, “DRUG COMBINATION CONTAINING PD-L1 SMALL MOLECULE INHIBITOR AND USE THEREOF” (Beijing Maxinovel Pharmaceuticals Co., Ltd., priority 2023, dated 2025).

How the values were obtained:
GL-261-luc cells = assay: Mouse glioma GL-261-luc brain orthotopic xenograft tumor model, pharmacodynamics and survival (Example 4, temozolomide combination); type: in vivo, C57 BL/6 mice; details: Compound of Formula I 120 mg/kg PO BID, TMZ 7.5 mg/kg IP BIW
Protocol: Experimental animals: 57 C57 BL/6 mice, female, 6 to 8 weeks old, weighing 16 to 20 g, purchased from Shanghai Jihui Laboratory Animal Care Co., Ltd.
Drugs: Compound of Formula I [drawing 5] manufacturer: Pharmaron (Tianjin) Process Development and Manufacturing Co., Ltd., batch number: TJ-MAX-10181-A-2; TMZ (Temozolomide), manufacturer: Shanghai Aladdin Biochemical Technology Co., Ltd., batch number: J2227749.
Murine GL-261-luc cells were grown adherently in vitro under culture conditions of DMEM medium supplemented with 10% heat-inactivated fetal bovine serum and 0.6 mg/mL G418 (stock concentration: 100 mg/mL), at 37°C with 5% CO2. Cells were passaged 2 to 3 times per week. When cells were in the exponential growth phase, the cells were harvested, counted, and inoculated into the right caudate nucleus of C57 BL/6 mice.
GL-261-luc cells in logarithmic growth phase were harvested at full confluence with viability guaranteed 90% or more. Mice were anesthetized via intraperitoneal injection of 41.6 mg/kg Zoletil according to body weight. 1 × 10^5/2 µL/mouse cells was orthotopically inoculated into the right caudate nucleus of each mouse, and the skin was sutured with 4/0 suture. After recovery, mice were returned to their cages. 4 days after inoculation, mice were imaged and grouped using the IVIS Lumina XR small animal imager. Fluorescence signal intensity was used for stratified randomization into 4 groups (9 mice per group). Administration began on the day of grouping, with daily weight monitoring and observation of mouse growth status. Mice were imaged twice weekly. Table 11: Animal Experiment Grouping and Administration Regimen
The experimental indicators were examined to determine whether tumor growth could be inhibited, delayed, or cured. According to the experimental design, tumor growth was monitored by imaging mice using the IVIS Lumina XR small animal imager. The tumor growth inhibition efficacy of the compounds was evaluated using TGI (Tumor Growth Inhibition), where TGI (%) = [1 - (TFtreatment-Dn - TFtreatment-D0) / (TFcontrol-Dn - TFcontrol-D0)] × 100% (where TFtreatment-D0 represents the fluorescence signal intensity of the treatment group on day 0, TFcontrol-D0 represents the fluorescence signal intensity of the control group on day 0; TFtreatment-Dn represents the fluorescence signal intensity of the treatment group on day n, and TFcontrol-Dn represents the fluorescence signal intensity of the control group on day n). The calculation formula for an increase in life span (ILS) is: ILS = (MSTTreatment - MSTControl) / MSTControl × 100% (where MSTTreatment is the median survival days for the treatment group, and MSTControl is the median survival days for the control group).
Tumor size was analyzed using the statistical software GraphPad Prism based on fluorescence signal intensity values. Two-way ANOVA was used to compare whether there were significant differences in fluorescence signal intensity between the control group and each treatment group, with p < 0.05 considered statistically significant and p < 0.01 considered highly statistically significant.

4T1 hPD-L1 cells [1] = assay: Pharmacodynamic study on mouse breast cancer 4T1 hPD-L1 model, subcutaneous (Example 2, celecoxib combination); type: in vivo, BALB/c mice; details: Compound of Formula I 120 mg/kg p.o. BID, Celecoxib 60 mg/kg p.o. BID
Protocol: Experimental animals: 100 BALB/c mice, female, 6 to 8 weeks old, weighing 18 to 21 g, purchased from: Shanghai Jihui Laboratory Animal Care Co., Ltd. (SCXK (Shanghai) 2020-0009; Certificate No.: 20220009001922).
Drugs: Compound of Formula I, manufacturer: Pharmaron (Tianjin) Process Development and Manufacturing Co., Ltd., batch number: TJ-MAX-10181-A-2; Celecoxib, manufacturer: Shanghai Yuanye Bio-Technology Co., Ltd., batch number: D11A6S2152.
(§1) Murine 4T1 hPD-L1 cells were grown adherently in vitro under culture conditions of RPMI-1640 medium supplemented with 10% heat-inactivated fetal bovine serum and 4 µg/mL Blasticidin (Beyotime/ST018-1mL), at 37°C with 5% CO2. Cells were passaged 2 to 3 times per week. When cells were in the exponential growth phase, the cells were harvested, counted, and inoculated subcutaneously on the right dorsal side of BALB/c mice.
100 µL of 1 × 10^6 4T1 hPD-L1 cell suspension was inoculated subcutaneously on the right dorsal side of BALB/c mice. On the seventh day after inoculation, stratified randomization was used to divide into 4 groups (10 mice per group) based on tumor volume and body weight. Administration began on the day of grouping. Table 5: Animal Experiment Grouping and Administration Regimen
(§2) The experimental indicators were examined to determine whether tumor growth could be inhibited, delayed, or cured. Tumors were measured three times per week using a digital vernier caliper. The tumor volume was calculated using the formula: V = 0.5a × b^2, where a and b represent the long and short diameters of the tumor, respectively. The tumor growth inhibition efficacy of compounds was calculated as: TGI (%) = [1 - (TVi - TV0) / (TVVi - TVV0)] × 100% (where TV0 represents the mean volume of the treatment group on day 0, TVV0 represents the mean volume of the control group on day 0; TVi represents the mean volume of the treatment group on day i, and TVVi represents the mean volume of the control group on day i).
(§3) If the animals' health condition continued to deteriorate, or the tumor volume exceeded 2,000 mm^3, or severe illness or pain occurred, euthanasia was required. In the following circumstances, the veterinarian was notified and euthanasia was performed: • (1) Significant emaciation with body weight loss exceeding 20%; • (2) Inability to freely access food and water; • (3) The experiment was terminated when the average tumor volume in the control group reached 2000 mm^3.
(§4) GraphPad Prism 8.0 software was used for plotting. Changes in tumor volume in mice were analyzed by Two-way ANOVA and compared with the vehicle control group using Dunnett's method, with P < 0.05 considered statistically significant.

4T1 hPD-L1 cells [2] = assay: Pharmacodynamic study on mouse breast cancer 4T1 hPD-L1 model, subcutaneous (Example 1, capecitabine combination); type: in vivo, BALB/c mice; details: Compound of Formula I 120 mg/kg p.o. BID, Capecitabine 100 mg/kg p.o. QD
Protocol: Experimental animals: 100 BALB/c mice, female, 6 to 8 weeks old, weighing 18 to 21 g, purchased from Shanghai Jihui Laboratory Animal Care Co., Ltd. (SCXK (Shanghai) 2020-0009; Certificate No.: 20220009001922).
Drugs: Compound of Formula I [drawing 4] manufacturer: Pharmaron (Tianjin) Process Development and Manufacturing Co., Ltd., batch number: TJ-MAX-10181-A-2; Capecitabine, manufacturer: Shanghai Yuanye Bio-Technology Co., Ltd., batch number: J10J12L137020.
as §1
100 µL of 1 × 10^6 4T1 hPD-L1 cell suspension was inoculated subcutaneously on the right dorsal side of BALB/c mice. On the 6th day after inoculation, suitable animals were selected based on tumor volume and body weight, and stratified randomization was used to divide them into 4 groups, with 10 mice per group. Administration began on the day of grouping. Table 1: Animal Experiment Grouping and Administration Regimen
as §2, §3, §4

4T1 cells = assay: Orthotopic 4T1 breast cancer model with tumor resection, survival study (Example 3, paclitaxel combination); type: in vivo, BALB/c mice; details: day 38; Compound of Formula I 60 mg/kg PO BID; Paclitaxel 6 mg/kg IP Q2D; orthotopic tumors resected 13 days after inoculation; n=10
Protocol: Experimental animals: 50 BALB/c mice, female, 6 to 8 weeks old, weighing 18 to 20 g. Zhejiang Vital River Laboratory Animal Technology Co., Ltd., Tongxiang Branch (SCKX (Zhejiang) 2021-0006); Certificate No.: 20220728Abzz0600000694.
Drugs: Compound of Formula I, manufacturer: Pharmaron (Tianjin) Process Development and Manufacturing Co., Ltd., batch number: TJ-MAX-10181-A-2; Paclitaxel (6 mg/mL), manufacturer: Corden Pharma Latina S.P.A., batch number: 2D07013.
Murine 4T1 cells were grown adherently in vitro under culture conditions of RPMI-1640 medium supplemented with 10% heat-inactivated fetal bovine serum at 37°C with 5% CO2. Cells were passaged 2 to 3 times per week. When the cells were in the exponential growth phase, the cells were harvested, counted, and inoculated into the fourth fat pad on the left abdomen of BALB/c mice.
50 µL of 1 × 10^5 4T1 cell suspension was inoculated into the fourth fat pad on the left abdomen of BALB/c mice. […]
The experimental indicators were examined to determine whether tumor growth could be inhibited, delayed, or cured. Tumors were measured three times per week using a digital vernier caliper. The tumor volume was calculated using the formula: V = 0.5a × b^2, where a and b represent the long and short diameters of the tumor, respectively. […]

[3] = mean, n=10, baseline on day of grouping

Compound: Cn1nnc2c(C(N)=O)ncn2c1=O [TMZ, Temozolomide]
- TGI (%)/Day 14 (GL-261-luc cells; Day 14, based on fluorescence signal intensity vs vehicle control): 35.51%
- Total Fluorescence Intensity at the End of the Experiment/Day 14 (GL-261-luc cells; Day 14): 1.27E + 09 p/s
- Total Fluorescence Intensity at the Beginning of the Experiment/Day 0 (GL-261-luc cells; baseline Day 0): 2.76E + 07 p/s
- mice showed > 10% body weight loss (GL-261-luc cells; by day 14 of administration, 9 mice per group): 2 mice
- Body Weight of Animals at the End of the Experiment (GL-261-luc cells; mean, n=9): 19.40 g
- Relative Body Weight Change of Animals at the End of the Experiment (GL-261-luc cells; mean, n=9): -0.63%
- Body Weight of Animals at the Beginning of the Experiment (GL-261-luc cells; mean, n=9, baseline): 19.51 g
- increase in life span (ILS) (GL-261-luc cells; median survival vs vehicle control, end of experiment): 25%

Compound: Cc1ccc(-c2cc(C(F)(F)F)nn2-c2ccc(S(N)(=O)=O)cc2)cc1 [Celecoxib]
- TGI (%)/Day 21 (4T1 hPD-L1 cells [1]; Day 21 vs vehicle control): 83.90%
- Tumor Volume at the End of the Experiment/Day 21 (4T1 hPD-L1 cells [1]; mean, n=10, Day 21): 341.70 mm^3
- Tumor Volume at the Beginning of the Experiment/Day 0 (4T1 hPD-L1 cells [1]; [3]): 159.34 mm^3
- Body Weight of Animals at the Beginning of the Experiment (4T1 hPD-L1 cells [1]; mean, baseline): 22.68 g
- Body Weight of Animals at the End of the Experiment (4T1 hPD-L1 cells [1]; mean, end of experiment): 23.68 g
- Relative Body Weight Change of Animals at the End of the Experiment (4T1 hPD-L1 cells [1]; mean, end of experiment): 4.48%

Compound: CCCCCOC(=O)Nc1nc(=O)n([C@@H]2O[C@H](C)[C@@H](O)[C@H]2O)cc1F [Capecitabine]
- TGI (%)/Day 21 (4T1 hPD-L1 cells [2]; Day 21 vs vehicle control): 56.16%
- Tumor Volume at the Beginning of the Experiment/Day 0 (4T1 hPD-L1 cells [2]; [3]): 125.17 mm^3

Compound: CC(=O)O[C@H]1C(=O)[C@@]2(C)[C@H]([C@H](OC(=O)c3ccccc3)[C@]3(O)C[C@H](OC(=O)[C@H](O)[C@@H](NC(=O)c4ccccc4)c4ccccc4)C(C)=C1C3(C)C)[C@]1(OC(C)=O)CO[C@@H]1C[C@@H]2O [Paclitaxel]
- survival rate of mice (4T1 cells): 10%
